Here are results for five compounds from PMC7753086 (Computational and Structural Biotechnology Journal, 2020).

Usually IC50 stands for the concentration at which inhibition is half-maximal. A lower IC50 goes with greater potency. Broadly, the Ki is a dissociation constant, usually derived from enzyme kinetics or from competition with a known ligand. A low value points to a stronger hold on the target. The Vmax is the rate approached at saturating substrate.

The conditions of data set [1]: after 5 days at 20 °C; cited from earlier work.
In data set [2] the test system is cellular tyrosinase in B16F10 melanoma cells. The format is cell-based, murine. Particulars: for cellular tyrosinase activity: 5, 10, 20 μM, α-MSH 1 μM and IBMX 200 µM, 48 h.
Data set [3] concerns the target mushroom tyrosinase (Agaricus bisporus, UniProt C7FF04). Put plainly: biochemical. The following applies: for Tyrosinase inhibition (%): 25 μM, L-tyrosine as substrate, NI: no inhibition, means ± SEMs, 25 µM; for inhibitory potency relative to kojic acid: from IC50 values. The format is biochemical.
The test system of data set [4] is B16F10 melanoma cells. The experiment in a line: Cell viability assay: EZ-cytox assay. The format is cell-based, murine. The following applies: up to 20 µM, 24 h.
In data set [5] the test system is B16F10 melanoma cells. The experiment in a line: Melanin content assay in α-MSH and IBMX co-stimulated B16F10 cells. The following applies: for melanin contents: 5, 10, 20 μM, α-MSH and IBMX, 48 h. The format is cell-based, murine.
The test system of data set [6] is mushroom tyrosinase. The experiment in a line: Kinetic studies of tyrosinase inhibition. The format is biochemical. Particulars: for mode of tyrosinase inhibition: Lineweaver-Burk plots, L-tyrosine as substrate.

Molecules are shown by their SMILES. Several values for one entry are separate records, joined by “and”; a condition that tells them apart may be missing. Equal entries are not always repeated. Entries after “also recorded” stand apart in the source; their conditions may differ. Where two headings read alike, the source gives them in different places.

mushroom tyrosinase (Agaricus bisporus, UniProt C7FF04), sequence (C7FF04 1-392): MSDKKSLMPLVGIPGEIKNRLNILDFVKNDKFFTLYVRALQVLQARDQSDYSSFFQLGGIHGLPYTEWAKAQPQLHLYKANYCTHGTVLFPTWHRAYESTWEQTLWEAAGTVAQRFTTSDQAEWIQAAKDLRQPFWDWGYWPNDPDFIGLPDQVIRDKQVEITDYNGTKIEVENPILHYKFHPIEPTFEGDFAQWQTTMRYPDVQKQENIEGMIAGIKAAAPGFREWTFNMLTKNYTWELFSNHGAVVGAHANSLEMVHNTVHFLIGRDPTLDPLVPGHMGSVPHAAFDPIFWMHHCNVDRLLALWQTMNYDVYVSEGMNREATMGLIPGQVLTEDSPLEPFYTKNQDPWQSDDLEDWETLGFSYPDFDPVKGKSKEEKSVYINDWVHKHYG

As to `OC[C@H]1O[C@@H](Oc2ccc(O)cc2)[C@H](O)[C@@H](O)[C@@H]1O` [Arbutin], the decomposition in data set [1] is 10%.
As for `O=C1/C(=C/c2ccccc2O)OC(=S)N1c1ccccc1` [Compound 1j, (Z)-5-(2-Hydroxybenzylidene)-3-phenyl-2-thioxooxazolidin-4-one], the cellular tyrosinase activity result in data set [2] was “significantly and concentration-dependently decreased cellular tyrosinase activity”. The entries for the “cellular tyrosinase inhibition compared with kojic acid at 20 μM” value in data set [2] (compound at 5 μM) and in data set [2] (compound at 10 μM) were “inhibited cellular tyrosinase more than kojic acid” and “more potent than kojic acid”, respectively. The compound also displayed a concentration for half-maximal inhibition (IC50) at mushroom tyrosinase [3] of 11.2 ± 0.54 µM. The “Tyrosinase inhibition (%)” value on mushroom tyrosinase [3] came to 71.12 ± 0.71%. For the same compound, at mushroom tyrosinase [3], the “inhibitory potency relative to kojic acid” value was 2 fold and 2.1 fold. Further, the “cytotoxic effect (cell viability)” value with B16F10 melanoma cells [4] is “did not have a significant cytotoxic effect”. The melanin contents result in the data set on B16F10 melanoma cells [5] was “significantly and potently decreased melanin contents”. In addition, the “inhibition of melanin production compared with kojic acid at 20 µM” value with B16F10 melanoma cells [5] (compound at 5 μM) is reported as “inhibited melanin production more than kojic acid”. For the same compound, the “mode of tyrosinase inhibition” value in the data set on mushroom tyrosinase [6] is on record as “competitively inhibited; also recorded: competitive inhibitors”. The results for the Ki on mushroom tyrosinase [6] (inhibitor conc. 5.0 μM), on mushroom tyrosinase [6] (inhibitor conc. 10.0 μM) and at mushroom tyrosinase [6] (inhibitor conc. 20.0 μM) were 5.85 µM, 4.51 µM and 3.22 µM, respectively. The Vmax with mushroom tyrosinase [6] (inhibitor conc. 5.0 μM), in the data set on mushroom tyrosinase [6] (inhibitor conc. 10.0 μM), in the data set with mushroom tyrosinase [6] (inhibitor conc. 20.0 μM) and in the data set on mushroom tyrosinase [6] (regardless of concentration) was 0.027 mM/min throughout.
`O=C1/C(=C/c2ccc(O)c(Br)c2)OC(=S)N1c1ccccc1` [Compound 1n, (Z)-5-(3-Bromo-4-hydroxybenzylidene)-3-phenyl-2-thioxooxazolidin-4-one]: the “Tyrosinase inhibition (%)” value at mushroom tyrosinase [3] is on record as 24.96 ± 4.72%.
Regarding `O=C1/C(=C/c2ccc(O)c(O)c2)OC(=S)N1c1ccccc1` [Compound 1b, (Z)-5-(3,4-Dihydroxybenzylidene)-3-phenyl-2-thioxooxazolidin-4-one], inhibition against mushroom tyrosinase [3] was half-maximal at 53.38 ± 0.39 µM (IC50).
`O=C1/C(=C/c2ccc(O)cc2O)OC(=S)N1c1ccccc1` [Compound 1c, (Z)-5-(2,4-Dihydroxybenzylidene)-3-phenyl-2-thioxooxazolidin-4-one]: the cellular tyrosinase activity result in data set [2] was “significantly and concentration-dependently decreased cellular tyrosinase activity”. The “cellular tyrosinase inhibition compared with kojic acid at 20 μM” value in data set [2] (compound at 10 μM) is reported as “more potent than kojic acid; also recorded: inhibited cellular tyrosinase more than kojic acid”. This compound also showed an IC50 against mushroom tyrosinase [3] of 4.7 ± 0.4 µM. Moreover, the “Tyrosinase inhibition (%)” value on mushroom tyrosinase [3] came to 78.05 ± 4.03%. Further, at mushroom tyrosinase [3], the “inhibitory potency relative to kojic acid” value was 5 fold and 4.9 fold. Further, the “cytotoxic effect (cell viability)” value in the data set with B16F10 melanoma cells [4] was “did not have a significant cytotoxic effect”. Also, the melanin contents result with B16F10 melanoma cells [5] is “significantly and potently decreased melanin contents”. Also, the “inhibition of melanin production compared with kojic acid at 20 µM” value with B16F10 melanoma cells [5] (compound at 10 μM) is given as “inhibited melanin production more than kojic acid”. Besides, in the data set on mushroom tyrosinase [6], the “mode of tyrosinase inhibition” value was “competitively inhibited; also recorded: competitive inhibitors”. Further, the results for the Ki at mushroom tyrosinase [6] (inhibitor conc. 2.5 μM), on mushroom tyrosinase [6] (inhibitor conc. 5.0 μM) and at mushroom tyrosinase [6] (inhibitor conc. 10.0 μM) were 3.02 µM, 2.51 µM and 2.19 µM, respectively. Further, the Vmax with mushroom tyrosinase [6] (inhibitor conc. 2.5 μM), with mushroom tyrosinase [6] (inhibitor conc. 5.0 μM), with mushroom tyrosinase [6] (inhibitor conc. 10.0 μM) and in the data set on mushroom tyrosinase [6] (regardless of concentration) was 0.04 mM/min throughout.
